What was measured:
[1] = in vivo; cited from earlier work
[2] = cited from earlier work
[3] = system: w794 DNA, 5'-AATTA high affinity site; assay: Relative rate of DNA alkylation at the w794 5'-AATTA high affinity site; format: biochemical, SV40; conditions: 25° C.
Experimental: Rate of DNA Alkylation. The relative rates of DNA alkylation for the natural enantiommers of CCBI-TMI (35) and CCBI-indole2 (37) versus those of the corresponding CBI and MCBI agents were measured at the single high affinity site in w794, 5'-AATTA. The relative rates earlier studies of DNA alkylation for MCBI-TMI, CBI-TMI, and duocarmycin SA were determined to be quite similar at 4° C., 1.8:1.0:0.9, respectively. […] In prior studies, we have highlighted similar observations with agents that span a much larger range of relative reactivities.
The DNA alkylation selectivity and efficiency of the natural enantiomers of 304-307 were compared with that of 1 in w794 DNA. […] These trends in the overall efficiency of DNA alkylation parallel the relative trends in cytotoxic potency.
(§1) DNA Alkylation Relative Rate of (+)-CCBI-TMI (35), (+)-CBI-TMI, and (+)-MCBI-TMI. Following the procedure detailed above, Eppendorf tubes containing 5' end-labeled w794 DNA (9 μL) in TE buffer (pH 7.5) were treated with (+)-CCBI-TMI (35), (+)-CBI-TMI, or (+)-MCBI-TMI (1 μL, 10^-6 M in DMSO). The solutions were mixed and incubated at 25° C. for 2, 4, 6, 9, 12, 15, and 24 h, respectively. Subsequent isolation of the alkylated DNA by EtOH precipitation, resuspension in TE buffer (10 μL, pH 7.5), thermolysis (30 min, 100° C.), PAGE, and autoradiography were conducted as detailed above. Relative rates for alkylation at the w794 high-affinity 5'-AATTA site were derived from the slopes of the plots of percent integrated optical density (IOD) of the high-affinity alkylation cleavage bands versus time.
as §1, with “(+)-CCBI-indole2 (37), (+)-CBI-indole2,” for “(+)-CCBI-TMI (35), (+)-CBI-TMI,”, “(+)-MCBI-indole2.” for “(+)-MCBI-TMI.”, “(+)-CCBI-indole2 (37), (+)-CBI-indole2, and (+)-MCBI-indole2” for “(+)-CCBI-TMI (35), (+)-CBI-TMI, or (+)-MCBI-TMI”

[4] = cited from earlier work; remark: listed apart in the source
[5] = In vitro cytotoxic activity (cell line not given); format: cell-based
[6] = system: w794 duplex DNA; assay: DNA alkylation selectivity and efficiency within w794 DNA, thermally-induced strand cleavage and PAGE; format: biochemical, SV40
In short: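 5′-32P end-labeled w794 duplex DNA in TE buffer (pH 7.2–7.5) incubated with agent in DMSO across concentrations, 4–37 °C for 24–76 h depending on agent. Unbound agent removed by EtOH precipitation; thermolysis 100 °C, 30 min cleaves alkylation sites, mapped by denaturing 8% PAGE beside Sanger standards and autoradiography.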

[7] = system: w794 DNA, 5'-AATTA high affinity site; assay: Relative rate of DNA alkylation at the w794 5'-AATTA high affinity site; format: biochemical, SV40; conditions: 10^-5 M, 25° C., 1-72 h
[8] = system: w794 duplex DNA; conditions: unnatural enantiomers; prior comparison; cited from earlier work
[9] = system: DNA; conditions: cited from earlier work
[10] = system: DNA; conditions: cited from earlier work; remark: listed apart in the source
[11] = system: w794 DNA, 5'-AATTA high affinity site; conditions: 4° C., earlier studies, 1.8:1.0:0.9; cited from earlier work

SMILES: O=C(Nc1ccc2[nH]c(C(=O)N3CC4CC45C3=CC(=O)c3ccccc35)cc2c1)c1cc2ccccc2[nH]1 (single isomer, unassigned) [CBI-indole2]
- delayed toxicity [1]: lacked the delayed fatal toxicity
- cytotoxic potency greater than (+)-CPI-indole2 (U71,184) [2]: 4 ×
- relative rate of DNA alkylation, indole2 series [3]: 1.0 ×
- in vivo antitumor activity [4]: potent and efficacious In vivo antitumor activity

SMILES: COC(=O)c1cc2c([nH]1)C(=O)C=C1N(C(=O)c3cc4cc(OC)ccc4[nH]3)CC3CC123 (single isomer, unassigned) [compound 305]
- properties relative to duocarmycin SA or 304 [5]: indistinguishable
- cytotoxic activity relative to duocarmycin SA or 304 (words) ([5]; listed as (+)-305): indistinguishable from duocarmycin SA
- DNA alkylation properties, comparison in words [6]: essentially indistinguishable from 1 itself
- krel, faster than 304 [7]: 18-33

SMILES: COc1c(O)c2c(c3cc(C(=O)N4CCc5c4c(O)c(OC)c4[nH]c(C(=O)N6CC7CC78C6=CC(=O)c6[nH]cc(C)c68)cc54)[nH]c13)CCN2C(N)=O (single isomer, unassigned; (+)) [(+)-CC-1065]
- delayed toxicity [1]: delayed fatal toxicity

SMILES: COc1cc2cc(C(=O)N3CC4CC45C3=CC(=O)c3ccccc35)[nH]c2c(OC)c1OC (single isomer, unassigned; (-)) [(-)-CBI-TMI]
- distinction in DNA alkylation efficiency from ent-(-)-duocarmycin SA [8]: 10 ×

SMILES: Cc1c(N)nc([C@H](CC(N)=O)NC[C@H](N)C(N)=O)nc1C(=O)N[C@H](C(=O)N[C@H](C)[C@@H](O)[C@H](C)C(=O)N[C@H](C(=O)NCCc1nc(-c2nc(C(=O)NCCC[S+](C)C)cs2)cs1)[C@@H](C)O)[C@@H](O[C@@H]1O[C@@H](CO)[C@@H](O)[C@H](O)[C@@H]1O[C@H]1O[C@H](CO)[C@@H](O)[C@H](OC(N)=O)[C@@H]1O)c1c[nH]cn1.[Br-] [compound 104]
- apparent binding site size [9]: 3.8 base-pairs
- Kd ([9]; dna, read-out: apparent DNA binding constant Kapp): 10 µM

SMILES: COC(=O)[C@]1(C)NC2=C(C1=O)[C@@]13C[C@@H]1CN(C(=O)c1cc4cc(OC)c(OC)c(OC)c4[nH]1)C3=CC2=O [duocarmycin A]
- adenine N3 adduct quantitated [10]: 86-92%

SMILES: COC(=O)c1cc2c([nH]1)C(=O)C=C1N(C(=O)c3cc4cc(OC)c(OC)c(OC)c4[nH]3)CC3CC123 (stereo not drawn) [duocarmycin SA]
- relative rate of DNA alkylation [11]: 0.9
- relative rate of DNA alkylation, TMI series ([3]; 10^-6 M): 0.9 ×
- properties relative to duocarmycin SA or 304 [5]: indistinguishable
- DNA alkylation properties, comparison in words [6]: exhibited the same selectivity and efficiency of DNA alkylation
- concentration of detectable alkylation of high affinity site 5'-AATTA ([6]; 25° C., 24 h): 10^-6 to 10^-7 M
- adenine N3 adduct quantitated [10]: 95-100%
- krel, 1 relative to 305 [7]: 1.3-2.3
- krel, faster than 304 [7]: 18-33

— patent US6060608A, “Analogs of CC-1065 and the duocarmycins” (The Scripps Research Institute, priority 1999, dated 2000)
